For series [1], the system named is human acute T-lymphoblastic leukemia cell Jurkat. Description: In vitro anticancer activity test (MTT cell proliferation assay). The format is cell-based. The method, then: (§1) The anticancer activity of the compounds was tested using an in vitro cancer cell tests. The specific test method is as follows: • 1. Cell recovery and culture method: the cryovial was taken out from the liquid nitrogen container firstly, soaked directly in 37°C warm water, and shaked from time to time to let it thaw as soon as possible. Then, the cryovial was transferred to a clean bench, and the lid was open. […] Then, the supernatant was discarded, complete culture medium containing 10% fetal bovine serum was added to resuspend the cells, the cells was counted, the cell density was adjusted, and then inoculated into a culture bottle. The culture bottle was placed in a cell culture incubator at 5% CO2 and 37°C. The complete culture medium was replaced once the next day and the culture was continued. • 2. Cell passaging method: adherent cells in the logarithmic growth phase were placed in a clean bench, the original culture medium was discarded, and washed three times with 1×PBS. An appropriate amount of 0.25% trypsin digestion solution was added to moisten the cells, and then the trypsin solution was aspirated. […] When 90% of the cells become round, the cells were moved immediately to the clean bench and complete culture medium was added to terminate digestion. Then, the cells were dislodged by pipetting up and down with a rubber-tipped dropper to single cells. The cells were counted, and the cell density was adjusted. The cells were inoculated into a suitable culture bottle or dish, added enough complete culture medium, and placed in a cell culture incubator at 5% CO2 and 37°C for static culture. For suspension cells in the logarithmic phase, the original culture medium was directly centrifuged at 50g for 5 minutes, the supernatant was discarded, and the cells were washed once with PBS and centrifuged. After discarding the supernatant, the complete culture medium was added and the cells were dispersed using a rubber-tipped dropper. The cells are counted, and the cell density was adjusted. The cells were inoculated into appropriate culture bottles or culture dishes, and sufficient complete culture medium was added, and the cells were cultured in a cell culture incubator at 5% CO2 and 37°C. • 3.

In series [2] the test system is Staphylococcus aureus ATCC43300. The series is described as follows: Resistance test of bacteria against compounds (serial passage, 21 days). In kind it is cell-based. The note with it: for MIC: Staphylococcus aureus, ATCC43300, 504 h, read-out: MIC at the end of the experiment. The procedure: This example provides a resistance test of bacteria against compounds, and the specific experimental method is as follows. • 1. […] It was ensured that among the 6 final concentrations of the drug diluted into the wells, some were higher than the original MIC of the bacteria and some were lower than the original MIC of the bacteria. • 2. Preparation of bacterial liquid: 10 mL of culture medium was taken and added to a sterilized plate using a pipette, then 100 µL of the above-mentioned passaged bacterial liquid was added, and mixed well for later use. • 3. The above-mentioned diluted bacterial liquid was taken and added to a 96-well plate using a pipette, 180 µL per well, 3 wells per group, 6 groups in total. 20 µL of drug solution was added to each well (note: it is necessary to replace the pipette tip each time the drug is added), so that the final drug concentrations were 2 µg/mL, 1 µg/mL, 0.8 µg/mL, 0.4 µg/mL, 0.2 µg/mL, 0.1 µg/mL, respectively. The well with 200 µL of diluted bacterial liquid was used as the positive control well, and the well with 200 µL of culture medium was used as the negative control well.
The test object was Staphylococcus aureus (S. aureus). The specific results are shown in FIG1.

Series [3] has as its system human ovarian adenocarcinoma cellSK-OV-3. The series is described as follows: In vitro anticancer activity test (MTT cell proliferation assay). In kind it is cell-based. The following applies: SK-OV-3. The method, then:
as §1

The subject of series [4] is human breast ductal carcinoma cell T-47D. The description is as above. The note with it: T47D. The format is cell-based. The procedure: as §1
For series [5], the system named is methicillin-resistant Staphylococcus aureus. In kind it is in vivo, Kunming mice. The note with it: for reduction of necrosis area compared with the control group: 4 consecutive days, measured on 5th day. The method, then: Kunming mice (20±2 g) were anesthetized with chloral hydrate and shaved, and then 50 µL of 4×10^7 CFU/mL of methicillin-resistant Staphylococcus aureus was subcutaneously injected. One day later, 100 µL of 0.02, 2 and 200 mg/kg of Example 29 were subcutaneously injected respectively, and 100 µL of normal saline was injected for the control group. The drug was administered for consecutive 4 days, and mice were euthanized on the 5th day, and the area of abscess was measured.

Values after ≈ are worked out from the molar mass of the structure shown. Read-outs that look alike come from different tables or passages of the source.

Compound `O=C(O)c1cn(C2CC2)c2cc(N3CCNCC3)c(F)cc2c1=O` [Ciprofloxacin] gave an IC50 in series [1] greater than 100 µM. In addition, the “resistance of bacteria in the subsequent culture” value in series [2] (Staphylococcus aureus ATCC43300, serial passage) is reported as “increased rapidly”. Also, the minimum inhibitory concentration (MIC) in series [2] came out at 128 µg/mL (≈ 386 µM).

Regarding `O=C(O)c1cn(C2CC2)c2c(Cl)c(-c3ccc(S(=O)(=O)NCCCC(F)(F)F)nc3)c(F)cc2c1=O` [Example 29, 8-chloro-1-cyclopropyl-6-fluoro-4-oxo-7-(6-(N-(4,4,4-trifluorobutyl)sulfamoyl)pyridin-3-yl)-1,4-dihydroquinolin-3-carboxylic acid], the concentration for half-maximal inhibition (IC50) in series [3], in series [4] and in series [1] was 1 to 10 µM throughout. Moreover, the “reduction of necrosis area compared with the control group” value in series [5] (0.02 mg/kg subcutaneous) stood at 78.09%; in series [5] (2 mg/kg subcutaneous), 81.21%. In addition, the antibacterial effect result in series [5] (concentrations 4 µg/mL and 400 µg/mL (corresponding to 0.02 mg/kg, 200 mg/kg)) is listed as “good antibacterial effect”. Further, the “observation at the subcutaneous administration site” value in series [5] (mouse, in vivo, sc, 200 mg/kg) is “certain bleeding symptom in body surface appeared”. The “initial MIC compared with ciprofloxacin and vancomycin” value in series [2] (Staphylococcus aureus ATCC43300, start of resistance test) was “superior”. Further, the MIC in series [2] came to 2 µg/mL (≈ 3.65 µM).

Take `CCN(CC)CCNC(=O)c1c(C)[nH]c(/C=C2\C(=O)Nc3ccc(F)cc32)c1C` [Sunitinib]: the half-maximal inhibitory concentration (IC50) in series [3] was found to be 12.2 ± 5.8 µM; in series [4], 6.4 ± 1.7 µM.

The values above are taken from patent publication EP4644391A1, “NOVEL PHENYLQUINOLONE COMPOUND HAVING ANTIBACTERIAL AND ANTICANCER FUNCTIONS, AND PREPARATION THEREOF” (Alphamol Science Ltd (Shanghai), priority 2022, dated 2024).
